Source: patent US20030130272A1, “Anthracene derivatives as anti-cancer agents” (priority 1999, published 2003)

Experiments:
MAC 15A cells = test: In vitro activity against MAC 15A adenocarcinoma (MTT assay); format: cell-based; conditions: MAC15A colon adenocarcinoma, 96 hours continuous exposure
Method: MAC 15A cells were grown in RPMI 1640 medium supplemented with 10% foetal calf serum containing a 1% antibiotic mixture under standard tissue culture conditions and were maintained at 37° C. in a humidified atmosphere of 5% CO2 in air. Cells were harvested from a stock culture in exponential growth phase and plated in 96-well flat-bottomed plates to achieve a final density of 2×10^3 cells per well. After 2 hours incubation medium was replaced with either fresh medium containing 0.5% DMSO (control) or medium containing test compound dissolved in DMSO at a concentrations from 10 mM to 1 nM. Chemosensitivity was assessed using MTT assay by the method of Plumb et al Cancer Research 49 (1989) 4435-4440.
Following 96 hours continuous exposure to drug at 37° C. cells were incubated with fresh drug-free medium immediately prior to addition of MTT solution (5 mg/ml). Medium and MTT were removed after 4 hours and 150 μl of DMSO was added. For each plate the absorbance of the resulting solution was measured at the analytical wavelength 550 nm for formnazan product, using a Labsystem Mutiskan. IC50 values were obtained from growth curves of drug concentration against % survival and are expressed in μm.
In vitro Cytotoxicity of Spacer Limked Anthraquinone Peptide Conjugates on MAC15A Colon Adenocarcinoma

HL-60 Human Leukemia = test: In vitro cytotoxicity against HL-60 human leukemia; format: cell-based
Text: In vitro Cytotoxicity of Spacer-Linked Anthraquinone-Peptide Conjugates Against HL-60 Human Leukemia

topo I [1] = target: T1, topo I (Homo sapiens, UniProt P11387); test: Inhibition of topoisomerase I mediated relaxation of pBR322 DNA; format: biochemical
T1 sequence (P11387 1-765): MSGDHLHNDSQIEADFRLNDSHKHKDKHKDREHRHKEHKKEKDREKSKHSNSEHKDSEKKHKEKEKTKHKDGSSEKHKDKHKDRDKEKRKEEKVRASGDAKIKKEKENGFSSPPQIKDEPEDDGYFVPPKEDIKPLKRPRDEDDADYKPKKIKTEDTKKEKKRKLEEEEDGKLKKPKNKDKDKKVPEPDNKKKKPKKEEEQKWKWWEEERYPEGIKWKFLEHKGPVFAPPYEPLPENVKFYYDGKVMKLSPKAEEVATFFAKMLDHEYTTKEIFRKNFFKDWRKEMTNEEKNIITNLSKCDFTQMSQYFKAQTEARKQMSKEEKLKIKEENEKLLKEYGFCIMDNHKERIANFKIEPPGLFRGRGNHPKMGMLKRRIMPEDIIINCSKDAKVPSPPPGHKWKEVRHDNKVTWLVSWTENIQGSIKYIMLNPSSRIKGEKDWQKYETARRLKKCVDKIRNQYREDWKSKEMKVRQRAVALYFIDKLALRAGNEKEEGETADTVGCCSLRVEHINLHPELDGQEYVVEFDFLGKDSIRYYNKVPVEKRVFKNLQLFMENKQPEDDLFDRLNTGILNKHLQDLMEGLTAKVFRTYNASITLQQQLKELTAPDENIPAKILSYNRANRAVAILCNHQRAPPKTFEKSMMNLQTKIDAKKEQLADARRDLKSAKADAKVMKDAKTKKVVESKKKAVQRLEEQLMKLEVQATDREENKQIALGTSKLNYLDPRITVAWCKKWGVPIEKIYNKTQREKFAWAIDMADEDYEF

topo I [2] = target: T1, topo I; test: Stimulation of topoisomerase I mediated cleavage of pBR322 DNA; format: biochemical; conditions: at 25 μM
Text: To determine the effect of the newly synthesised compounds on the catalytic activity of topo I and II (α and β), specific tests measuring relaxation, decatenation and enzyme-mediated cleavage of DNA were employed using purified human topos.
Simulation of Topoisomerase I Mediated Cleavage of pBR322DNA by Spacer-Linked Anthraquinone-Peptide Conjugates

pBR322 DNA = test: DNA binding assay: fluorescence quenching, displacement of ethidium bromide and Hoechst dye 33258
Text: The present inventors have now determined that the introduction of appropriately positioned, conformationally restricted groups into the spacer group of spacer-linked anthraquinone-amino acid or peptide conjugates, allows control of the affinity and mode of binding to DNA. This affinity and mode of binding to DNA is readily determined by fluorescence quenching experiments in which the Q50 values for displacement of ethidium bromide, a DNA intercalator, and for Hoechst 33258 dye, a DNA minor-groove-binder, from which their fluorescent DNA-bound complexes are measured and expressed in μM units of drug concentration (see PCT/GB99/01901 incorporated herein by reference).
The propensity of selected compounds to bind to DNA in the absence of topos was measured in order to identify compounds that would bind weakly, or not at all. […] A […] was used determine binding constants of the compound to DNA by displacement of either ethidium bromide (an intercalator) or Hoechst dye 33258 (a groove binder) which form a DNA-bound fluorescent complex measured by fluorescence spectroscopy.
DNA Binding Assay Protocol
In order to detect the strength and mode of anthraquinone compound binding to DNA the displacement of known DNA binders was detected by measuring the fluorescence of a DNA/fluorescent compound complex. The addition of known concentrations of ethidium bromide, an interchelator, and Hoescht Dye, a groove binder, cause a fluorescent DNA/binder complex that can be detected and the fluorescence quantified. The addition of anthraquinone compounds displaces the interchelators or groove binders, depending on the compound mode of DNA binding, and therefore reduces the fluorescence accordingly. The preferred binding action of compounds can be quantified by determining the reduction in fluorescence resulting from a given concentration of compound. The quantification of a compounds ability to bind to DNA is expressed, as the concentration required to displace 50% of the ethidium bromide or Hocscht Dye, thus reducing the fluorescence by 50%. Therefore, the values produced are QE50 for ethidium, bromide, or QH50 for Hoescht Dye.
Compound: 300, 60, 10 and 10/6 µM (1.66 μM) solution concentrations were prepared for use in the assay to produce a range of compound. Concentrations. 100, 200 and 300 μl of each dilution were used in the assay reaction. This provides a range of concentrations: −30, 20, 10, 6, 4, 2, 1, 0.67, 0.33, 0.17, 0.11, 0.06, 0.00 μM in the assay environment. Intermediate concentrations can be utilised to enhance the accuracy of the displacement concentration determination.
Buffer: 100 mM Tris, NaCI 500 mM. […] Stock solution of 200 μM was prepared in 10× assay buffer. Dilution of DNA therefore provided the correct concentration of assay buffer in the assay cell. 300 μg DNA was used in 3 ml reaction mixture therefore 20 μM DNA concentration. Hoescht Dye 2 μM final concentration, therefore 100 μl of a 60 μM stock solution was added to a 3 ml assay. Ethidium Bromide 2 μM final concentration therefore 100 μl of a 60 μM stock solution was added to a 3 ml assay. Distilled H2O Water was added to produce 3 ml reaction volume. Order of addition: 1. DNA, 2. Water, 3. Drug, 4. Dye
The assay was completed with both Hoescht Dye and Ethidium. Bromide for each compound. The ethidium bromide is a DNA inter-chelator, Hoescht Dye is a minor groove binder. 100, 200 and 30 gμ of the lowest compound dilution was assayed. This procedure was repeated with all further dilution's. This provided a curve of fluorescence intensity decrease with increasing compound concentration. QE50 and QH50 values were determined by extrapolating the concentration of compound at the point where the fluorescence intensity was reduced by 50%. Controls involving compound only and ethidium. bromide or Hoechst Dye without compound were carried out for each experiment. […]

topo I [3] = target: T1, topo I; test: Immunoband depletion of topoisomerase I in HL-60 cells; format: cell-based; parameters: endogenous in cells; host or cells: HL-60 human leukemia cells
Method: Immunoband Depletion of Topoisomerase I
The data provides good evidence for ternary complex (drug-DNA-enzyme) formation in viable whole cells.
The method was adapted from Boege and Andersen [Selected novel flavones inhibit the DNA binding or the DNA religation step of cukaryotic topoisomerase I, F. Boege, T. Straub, A. Kehr, C. Boesenberg, K. Christiansen, A. Andersen, F. Jakob, J, Kohrle, J. Biol. Chem., 271, 2262, (1996)]; briefly, 10^6 HL-60 cells were cultivated for 1 h with and without drugs. Reactions were terminated by sedimentation of the cells (1000×g, 5 min, 4° C.) and subsequent lysis in PBS/NP40, RIPA buffer containing pepstatin and leupeptin. Samples were subjected to SDS-polyacrylamide (8%) gel electrophoresis and proteins that had entered the gel were electrophoretically transferred to nitro-cellulose sheets by the semi-dry method. Immunstaining of immobilised proteins was carried out using a polyclonal Ab of human topo I [topogen], and subsequently anti-human Ig biotinylated whole Ab (sheep)[Amersham], streptavidin horse-radish peroxidase and the ECL system [Amersham].

Compound: C[C@H](N)C(=O)N1CCN(c2cccc3c2C(=O)c2ccccc2C3=O)CC1.O=C(O)C(F)(F)F [Example 17, 1-(1-L-alanylpiperazinyl)anthracene-9,10-dione trifluoroacetate salt]
- IC50 (MAC 15A cells): 25 µM
- IC50 (HL-60 Human Leukemia): 10.7 µM
- DNA-topoisomerase activity: inhibition of topo I relaxation (topo I [1]; at 25 μM): COMPLETE inhibition at 25 μM
- nicked plasmid DNA (topo I mediated cleavage) (topo I [2]): 10% nicked plasmid DNA at 25 μM

Compound: N[C@@H](Cc1ccccc1)C(=O)NC1CCC(Nc2cccc3c2C(=O)c2ccccc2C3=O)CC1.O=C(O)C(F)(F)F (stereo partly drawn) [Example 26, (2S)-2-amino-N-{4-[(9,10-dioxoanthryl)amino]cyclohexyl}-3-phenylpropanamide trifluoroacetate salt]
- IC50 (MAC 15A cells): 3.5 µM
- QH50 (pBR322 DNA; concentration displacing 50% of Hoechst dye 33258 (groove binder) from DNA): 2.3 µM
- QE50 (pBR322 DNA; concentration displacing 50% of ethidium bromide (intercalator) from DNA): 6.5 µM
- DNA-topoisomerase activity: inhibition of topo I relaxation (topo I [1]; between 25-100 μM): NO inhibition between 25-100 μM
- nicked plasmid DNA (topo I mediated cleavage) (topo I [2]): 45% nicked plasmid DNA at 25 μM
- intensity of the (100 kDa) topo I band (topo I [3]; 1 h with drug, in comparison with camptothecin): Reductions in the intensity of the (100 kDa) topo I band were observed
- extent of immunoband depletion (topo I [3]; above 200 μM): comparable to the effect of camptothecin at 50 μM
